Results as given in article PMC12114947, “Evaluation of Violacein Metabolic Stability and Metabolite Identification in Human, Mouse, and Rat Liver Microsomes” (Pharmaceutics, 2025).
≈ marks a conversion by molar mass, not a printed value.

Columns and labels:
in vitro = in vitro ADME; settings: human
Method: (§1) The metabolic stability of volacein was assessed as described by Godoi et al. and Antunes et al.. Aliquots (4 µL) of 100 µM violacein working solution and 96 µL of the NADPH-regenerating system, containing 1.1 mM NADP^+, 10 mM glucose-6-phosphate, 1 U/mL glucose-6-phosphate dehydrogenase, 5 mM sodium citrate, and 66 mM magnesium chloride in 100 mM phosphate buffer, pH 7.4, were transferred to propylene tubes and pre-incubated for 5 min in an MTC 100 thermo shaker incubator (Miulab, Zhejiang, China) at 300 rpm and 37 °C. Subsequently, the metabolic reactions were initiated by adding 100 μL of microsomal proteins from HLMs, RLMs, and MLMs at a concentration of 2 mg/mL to the pre-incubated shaking tubes, resulting in final concentrations of 2 μM for violacein and 1 mg/mL for microsomal proteins. In this experiment, seven incubation times were planned for each species (0, 3, 5, 15, 30, 60, and 120 min), in triplicate. At each time interval, the reactions were stopped by adding 400 μL of ice-cold acetonitrile spiked with 10 µM omeprazole (IS) to each tube. Finally, the samples were vortexed for 5 min in a BenchMixer^TM XL (Benchmark, NJ, USA) and centrifuged at 12,000× g for 15 min at 4 °C (Hettich® Universal 320 R, Tuttlingen, Germany). The supernatants were transferred to a 96-well plate and 8 μL was injected into the LC-MS/MS system (see Section 2.3).
(§2) All incubations were performed simultaneously with positive and negative controls. The positive controls were prepared by incubating dapaconazole at the same conditions as violacein (final concentrations: 2 μM) and its metabolic stability was compared with previous studies. Similarly, the negative controls were prepared by incubating violacein in buffer solution, in the absence of microsome and cofactor solutions.
(§3) Violacein was analyzed using LC-MS/MS (LC-QQQ MS, LCMS8045, Shimadzu, Kyoto, Japan). Chromatographic separation was achieved on a Raptor^TM Biphenyl column (2.1 × 100 mm, 2.7 μm) at 40 °C. The mobile phases consisted of water (mobile phase A) and methanol (mobile phase B), both containing 2 mM ammonium formate and 0.1% (v/v) formic acid. A flow rate of 0.3 mL/min was used with an elution gradient starting at 20% mobile phase B and holding for 0.2 min, followed by a linear increase to 95% mobile phase B over 2 min that was then maintained for 1 min, with a return to the initial condition in 0.2 min. The total chromatographic run time was 5 min.
(§4) In vitro t1/2 was calculated using to the following equation [60, 61]:(1) t1/2=ln(2)/k where k is the slope of the log-linear regression graph of the percentage of drug remaining as a function of time.
CLint, in vitro was calculated using to the following equation [60, 61]:(2) CLint, in vitro=0.693/t1/2×Vincubation/mmicrosomes where Vincubation indicates the volume of the incubation in μL and mmicrosomes indicates the mass of microsomal proteins added to the incubation solution in mg.
After determining CLint, in vitro, it was possible to calculate CLint, in vivo using allometric scaling, as follows:(3) CLint, in vivo=CLint, in vitro×mmicrosomes/gliver×mliver/kgper body weight where mmicrosomes is 61, 45, and 40 mg and represents the mass of microsomal protein per gram of liver (gliver) for rats, mice, and humans, respectively. The mliver is 40, 87.5, and 25.7 g/kg and represents the mass of liver per kilogram of body weight (kgper body weight) for rats, mice, and humans, respectively.
Metabolic stability was evaluated by linear regression analysis of the residual violacein after incubating 4 µM violacein with 2 mg/mL of HLMs, MLMs, and RLMs in the presence of the enzymatic cofactors required for CYP function in microsomes. Calculation of the in vitro violacein metabolic stability was achieved by plotting the remaining percentage of violacein on the y-axis and the incubation time on the x-axis (Figure 1a). […]

[1] = In vitro metabolic stability in rat liver microsomes; format: in vitro ADME
Method: (§5) After removal, a pool consisting of livers from five naïve male rats and five C57BL male mice was immediately placed in a 50 mM Tris-HCl buffer, pH 7.4, containing 150 mM KCl. The livers were diced with scissors and washed three times with buffer, followed by homogenization with 20 mL of buffer in a Potter-type homogenizer (three cycles, with each cycle comprising three grindings of 1 min each at 1000 rpm). The homogenate was centrifuged at 10,000× g for 15 min at 4 °C. The resulting supernatant was then ultracentrifuged at 100,000× g for 60 min at 4 °C to obtain the microsomal pellet, which was resuspended in 50 mM HEPES-HCl buffer, pH 7.4, containing 20% glycerol and 1 mM EDTA.
as §1, §2, §3, §4
(§6) CLint, in vitro was calculated using to the following equation [60, 61]:(2) CLint, in vitro=0.693/t1/2×Vincubation/mmicrosomes where Vincubation indicates the volume of the incubation in μL and mmicrosomes indicates the mass of microsomal proteins added to the incubation solution in mg. […]

[2] = In vitro metabolic stability in mouse liver microsomes; format: in vitro ADME
Method: as §5, §1, §2, §3, §4, §6

Trichophyton rubrum = tested on: Trichophyton rubrum; set-up: method as in PMID 26428920; settings: cited from earlier work

Ln Z (in vitro; 0 min, 2 µM, pH 7.4): 4.605
Ln Z (in vitro; 3 min, 2 µM, pH 7.4): 4.462
Ln Z (in vitro; 5 min, 2 µM, pH 7.4): 4.417
Ln Z (in vitro; 15 min, 2 µM, pH 7.4): 4.316
Ln Z (in vitro; 30 min, 2 µM, pH 7.4): 4.277
Ln Z (in vitro; 60 min, 2 µM, pH 7.4): 4.183
Ln Z (in vitro; 120 min, 2 µM, pH 7.4): 4.017
Z (%), remaining percentage of violacein (in vitro; microsomes, 0 h, 2 µM, pH 7.4): 100%
CLint, in vivo (in vitro; microsomes, 2 µM, pH 7.4): 0.395 L/h/kg
Z (%), remaining percentage of violacein (in vitro; microsomes, 0.05 h, 2 µM, pH 7.4): 87%
Z (%), remaining percentage of violacein (in vitro; microsomes, 5 min, 2 µM, pH 7.4): 83%
Z (%), remaining percentage of violacein (in vitro; microsomes, 0.25 h, 2 µM, pH 7.4): 75%
Z (%), remaining percentage of violacein (in vitro; microsomes, 0.5 h, 2 µM, pH 7.4): 72%
Z (%), remaining percentage of violacein (in vitro; microsomes, 1 h, 2 µM, pH 7.4): 66%
half-life at 2 µM (in vitro; microsomes, pH 7.4): 3.6 h
microsomal CLint at 2 µM (in vitro; microsomes, pH 7.4): 6.4 µL/min/mg
CLint scaled at 2 µM (in vitro; microsomes, pH 7.4, CLint, in vivo): 0.396 L/h/kg
CLint, in vitro ([1]; RLMs): 38.41 µL/min/mg
Ln Z ([1]; RLMs, time 0 min): 4.605
Z (%), remaining percentage of violacein ([1]; RLMs, time 0 min): 100%
Ln Z ([1]; RLMs, time 3 min): 4.495
Z (%), remaining percentage of violacein ([1]; RLMs, time 3 min): 90%
Ln Z ([1]; RLMs, time 5 min): 4.101
Z (%), remaining percentage of violacein ([1]; RLMs, time 5 min): 60%
Ln Z ([1]; RLMs, time 15 min): 3.832
Z (%), remaining percentage of violacein ([1]; RLMs, time 15 min): 46%
Ln Z ([1]; RLMs, time 30 min): 3.371
Z (%), remaining percentage of violacein ([1]; RLMs, time 30 min): 29%
Ln Z ([1]; RLMs, time 60 min): 2.549
Z (%), remaining percentage of violacein ([1]; RLMs, time 60 min): 13%
Ln Z ([1]; RLMs, time 120 min): 1.899
Z (%), remaining percentage of violacein ([1]; RLMs, time 120 min): 7%
microsomal CLint at 2 µM ([1]; male, rat, rat liver microsomes, pH 7.4, RLMs): 38.4 µL/min/mg
CLint scaled at 2 µM ([1]; male, rat, rat liver microsomes, pH 7.4, rat, extrapolated from CLint, in vitro by allometric scaling, read-out: CLint, in vivo): 5.62 L/h/kg
half-life at 2 µM ([1]; male, rat, rat liver microsomes, pH 7.4, RLMs, 2 μM violacein, 1 mg/mL microsomal protein, NADPH-regenerating system, 37 °C, n = 3, read-out: In vitro elimination half-life (t1/2)): 0.6 h
CLint, in vivo ([1]; rat, extrapolated from CLint, in vitro by allometric scaling): 5.623 L/h/kg
CLint, in vitro ([2]; MLMs): 17.01 µL/min/mg
Ln Z ([2]; MLMs, time 0 min): 4.605
Z (%), remaining percentage of violacein ([2]; MLMs, time 0 min): 100%
Ln Z ([2]; MLMs, time 3 min): 4.490
Z (%), remaining percentage of violacein ([2]; MLMs, time 3 min): 89%
Ln Z ([2]; MLMs, time 5 min): 4.379
Z (%), remaining percentage of violacein ([2]; MLMs, time 5 min): 80%
Ln Z ([2]; MLMs, time 15 min): 4.244
Z (%), remaining percentage of violacein ([2]; MLMs, time 15 min): 70%
Ln Z ([2]; MLMs, time 30 min): 4.022
Z (%), remaining percentage of violacein ([2]; MLMs, time 30 min): 56%
Ln Z ([2]; MLMs, time 60 min): 3.715
Z (%), remaining percentage of violacein ([2]; MLMs, time 60 min): 41%
Ln Z ([2]; MLMs, time 120 min): 3.385
microsomal CLint at 2 µM ([2]; male, C57BL, mouse, mouse liver microsomes, pH 7.4, MLMs): 17 µL/min/mg
CLint scaled at 2 µM ([2]; male, C57BL, mouse, mouse liver microsomes, pH 7.4, mouse, extrapolated from CLint, in vitro by allometric scaling, read-out: CLint, in vivo): 4.02 L/h/kg
half-life at 2 µM ([2]; male, C57BL, mouse, mouse liver microsomes, pH 7.4, MLMs, 2 μM violacein, 1 mg/mL microsomal protein, NADPH-regenerating system, 37 °C, n = 3, read-out: In vitro elimination half-life (t1/2)): 1.35 h
CLint, in vivo ([2]; mouse, extrapolated from CLint, in vitro by allometric scaling): 4.019 L/h/kg
SMILES: O=C1NC(c2c[nH]c3ccc(O)cc23)=C/C1=C1\C(=O)Nc2ccccc21 [violacein]
Slope (k), metabolism rate constant (in vitro; 2 µM, pH 7.4): y = −0.0032x + 4.3894 r^2 = 0.9651 Slope (k) = 0.0032
Slope (k), metabolism rate constant ([1]; RLMs, ln remaining % vs incubation time): y = −0.0192x + 4.0344 r^2 = 0.9459 Slope (k) = 0.0192
Slope (k), metabolism rate constant ([2]; MLMs, ln remaining % vs incubation time): y = −0.0085x + 4.3405 r^2 = 0.9554 Slope (k) = 0.0085
MIC (Trichophyton rubrum): 2 mg/L (≈ 5.83 µM)
